Results as given in PMC6979384, “Characterization of the plant homeodomain (PHD) reader family for their histone tail interactions” (Epigenetics & Chromatin, 2020).

How the values were obtained:
Test in all cases: Histone peptide microarray
Assay type in all cases: binding, human
DPF2 (PPC2W2) = tested on: DPF2 (PPC2W2)
Procedure, shortened: (§1)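 A peptide microarray holding 293 synthetic histone peptides with individual or combinatorial modifications was probed with each GST-PHD protein at 0.5 μM. Values represent mean intensity (±SD) from four replicates.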

KDM5B (1) = tested on: KDM5B (1)
Procedure, shortened: as §1

KDM7A = tested on: KDM7A
Procedure, shortened: as §1

MLL5 = tested on: MLL5
Procedure, shortened: as §1

TAF3 = tested on: TAF3
Procedure, shortened: as §1

CHD5 (PCC) = tested on: CHD5 (PCC)
Procedure, shortened: as §1

DIDO1 = tested on: DIDO1
Procedure, shortened: as §1

ING3 = tested on: ING3
Procedure, shortened: as §1

PHF13 = tested on: PHF13
Procedure, shortened: as §1

MORC3 (CW) = tested on: MORC3 (CW)
Procedure, shortened: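 Readout is array binding signal, reported as the mean and standard deviation over four replicates. Each purified GST-fused PHD domain was incubated at 0.5 μM with a library of 293 modified histone peptides.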

PHRF1 (RP) = tested on: PHRF1 (RP)
Procedure, shortened: as §1

RAG2 = tested on: RAG2
Procedure, shortened: as §1

PHF23 = tested on: PHF23
Procedure, shortened: as §1

ING5 = tested on: ING5
Procedure, shortened: as §1

CHD4 (PPCC) = tested on: CHD4 (PPCC)
Procedure, shortened: as §1

ING2 = tested on: ING2
Procedure, shortened: as §1

PHF21A = tested on: PHF21A
Procedure, shortened: as §1

KDM5A (3) = tested on: KDM5A (3)
Procedure, shortened: as §1

ING4 = tested on: ING4
Procedure, shortened: as §1

SP140L = tested on: SP140L
Procedure, shortened: as §1

KDM5B (3) = tested on: KDM5B (3)
Procedure, shortened: as §1

BAZ2B = tested on: BAZ2B
Procedure, shortened: as §1

CHD5 (PPCC) = tested on: CHD5 (PPCC)
Procedure, shortened: as §1

PHF8 = tested on: PHF8
Procedure, shortened: as §1

AIRE (PP) = tested on: AIRE (PP)
Procedure, shortened: as §1

ING1 = tested on: ING1
Procedure, shortened: as §1

KDM4C (TTP) = tested on: KDM4C (TTP)
Procedure, shortened: as §1

PHF2 = tested on: PHF2
Procedure, shortened: as §1

TRIM66 (PB) = tested on: TRIM66 (PB)
Procedure, shortened: as §1

BPTF (PB) = tested on: BPTF (PB)
Procedure, shortened: as §1

KDM5A (1) = tested on: KDM5A (1)
Procedure, shortened: as §1

[1] = sheet "Array Heatmap", GST-tagged reader, histone peptide array, total n = 4

Substance: H3K36me1 (21-44): H3 21-44
- Array Heatmap value (peptide array binding signal) (DPF2 (PPC2W2); DPF2 (PPC2W2), GST-tagged, arrays performed twice, n of 4): 0.6617
- Array Heatmap value (peptide array binding signal) (KDM5B (1); KDM5B (1), GST-tagged, arrays performed twice, n of 4): 0.6354
- Array Heatmap value (peptide array binding signal) (KDM7A; KDM7A, GST-tagged, arrays performed twice, n of 4): 0.3181
- Array Heatmap value (peptide array binding signal) (MLL5; MLL5, GST-tagged, arrays performed twice, n of 4): 0.4918
- Array Heatmap value (peptide array binding signal) (TAF3; TAF3, GST-tagged, arrays performed twice, n of 4): 0.2241
- Array Heatmap value (peptide array binding signal) (CHD5 (PCC); CHD5 (PCC), GST-tagged, arrays performed twice, n of 4): 0.7445
- Array Heatmap value (peptide array binding signal) (DIDO1; DIDO1, GST-tagged, arrays performed twice, n of 4): 0.5926
- Array Heatmap value (peptide array binding signal) (ING3; ING3, GST-tagged, arrays performed twice, n of 4): 0.3958
- Array Heatmap value (peptide array binding signal) (PHF13; PHF13, GST-tagged, arrays performed twice, n of 4): 0.5223
- Array Heatmap value (peptide array binding signal) (MORC3 (CW); MORC3 (CW), GST-tagged, arrays performed twice, n of 4): 0.3108
- Array Heatmap value (peptide array binding signal) (PHRF1 (RP); PHRF1 (RP), GST-tagged, arrays performed twice, n of 4): 0.3839
- Array Heatmap value (peptide array binding signal) (RAG2; RAG2, GST-tagged, arrays performed twice, n of 4): 0.2054
- Array Heatmap value (peptide array binding signal) (PHF23; PHF23, GST-tagged, arrays performed twice, n of 4): 0.4625
- Array Heatmap value (peptide array binding signal) (ING5; ING5, GST-tagged, arrays performed twice, n of 4): 0.2888
- Array Heatmap value (peptide array binding signal) (CHD4 (PPCC); CHD4 (PPCC), GST-tagged, arrays performed twice, n of 4): 0.5004
- Array Heatmap value (peptide array binding signal) (ING2; ING2, GST-tagged, arrays performed twice, n of 4): 0.5895
- Array Heatmap value (peptide array binding signal) (PHF21A; PHF21A, GST-tagged, arrays performed twice, n of 4): 0.4184
- Array Heatmap value (peptide array binding signal) (KDM5A (3); KDM5A (3), GST-tagged, arrays performed twice, n of 4): 0.3829
- Array Heatmap value (peptide array binding signal) (ING4; ING4, GST-tagged, arrays performed twice, n of 4): 0.3966
- Array Heatmap value (peptide array binding signal) (SP140L; SP140L, GST-tagged, arrays performed twice, n of 4): 0.3238
- Array Heatmap value (peptide array binding signal) (KDM5B (3); KDM5B (3), GST-tagged, arrays performed twice, n of 4): 0.3806
- Array Heatmap value (peptide array binding signal) (BAZ2B; BAZ2B, GST-tagged, arrays performed twice, n of 4): 0.3935
- Array Heatmap value (peptide array binding signal) (CHD5 (PPCC); CHD5 (PPCC), GST-tagged, arrays performed twice, n of 4): 0.4582
- Array Heatmap value (peptide array binding signal) (PHF8; PHF8, GST-tagged, arrays performed twice, n of 4): 0.3097
- Array Heatmap value (peptide array binding signal) (AIRE (PP); AIRE (PP), GST-tagged, arrays performed twice, n of 4): 0.395
- Array Heatmap value (peptide array binding signal) (ING1; ING1, GST-tagged, arrays performed twice, n of 4): 0.4725
- Array Heatmap value (peptide array binding signal) (KDM4C (TTP); KDM4C (TTP), GST-tagged, arrays performed twice, n of 4): 0.4185
- Array Heatmap value (peptide array binding signal) (PHF2; PHF2, GST-tagged, arrays performed twice, n of 4): 0.4036
- Array Heatmap value (peptide array binding signal) (TRIM66 (PB); TRIM66 (PB), GST-tagged, arrays performed twice, n of 4): 0.5169
- Array Heatmap value (peptide array binding signal) (BPTF (PB); BPTF (PB), GST-tagged, arrays performed twice, n of 4): 0.3001
- Array Heatmap value (peptide array binding signal) (KDM5A (1); KDM5A (1), GST-tagged, arrays performed twice, n of 4): 0.422

Substance: H4K5butK8butK12but: H4 1-23
- Array Heatmap value (peptide array signal) (DPF2 (PPC2W2); DPF2 (PPC2W2), sheet "Array Heatmap", each array performed twice, total n = 4): 0.6505
- Array Heatmap value (peptide array signal) (KDM5B (1); KDM5B (1), sheet "Array Heatmap", each array performed twice, total n = 4): 0.5776
- Array Heatmap value (peptide array signal) (KDM7A; KDM7A, sheet "Array Heatmap", each array performed twice, total n = 4): 0.3032
- Array Heatmap value (peptide array signal) (MLL5; MLL5, sheet "Array Heatmap", each array performed twice, total n = 4): 0.5293
- Array Heatmap value (peptide array signal) (TAF3; TAF3, sheet "Array Heatmap", each array performed twice, total n = 4): 0.2569
- Array Heatmap value (peptide array signal) (CHD5 (PCC); CHD5 (PCC), sheet "Array Heatmap", each array performed twice, total n = 4): 0.661
- Array Heatmap value (peptide array signal) (DIDO1; DIDO1, sheet "Array Heatmap", each array performed twice, total n = 4): 0.6712
- Array Heatmap value (peptide array signal) (ING3; ING3, sheet "Array Heatmap", each array performed twice, total n = 4): 0.4441
- Array Heatmap value (peptide array signal) (PHF13; PHF13, sheet "Array Heatmap", each array performed twice, total n = 4): 0.5714
- Array Heatmap value (peptide array signal) (MORC3 (CW); MORC3 (CW), sheet "Array Heatmap", each array performed twice, total n = 4): 0.3355
- Array Heatmap value (peptide array signal) (PHRF1 (RP); PHRF1 (RP), sheet "Array Heatmap", each array performed twice, total n = 4): 0.4335
- Array Heatmap value (peptide array signal) (RAG2; RAG2, sheet "Array Heatmap", each array performed twice, total n = 4): 0.2246
- Array Heatmap value (peptide array signal) (PHF23; PHF23, sheet "Array Heatmap", each array performed twice, total n = 4): 0.5206
- Array Heatmap value (peptide array signal) (ING5; ING5, sheet "Array Heatmap", each array performed twice, total n = 4): 0.3275
- Array Heatmap value (peptide array signal) (CHD4 (PPCC); CHD4 (PPCC), sheet "Array Heatmap", each array performed twice, total n = 4): 0.5302
- Array Heatmap value (peptide array signal) (ING2; ING2, sheet "Array Heatmap", each array performed twice, total n = 4): 0.5892
- Array Heatmap value (peptide array signal) (PHF21A; PHF21A, sheet "Array Heatmap", each array performed twice, total n = 4): 0.3738
- Array Heatmap value (peptide array signal) (KDM5A (3); KDM5A (3), sheet "Array Heatmap", each array performed twice, total n = 4): 0.4238
- Array Heatmap value (peptide array signal) (ING4; ING4, sheet "Array Heatmap", each array performed twice, total n = 4): 0.4352
- Array Heatmap value (peptide array signal) (SP140L; SP140L, sheet "Array Heatmap", each array performed twice, total n = 4): 0.3551
- Array Heatmap value (peptide array signal) (KDM5B (3); KDM5B (3), sheet "Array Heatmap", each array performed twice, total n = 4): 0.4196
- Array Heatmap value (peptide array signal) (BAZ2B; BAZ2B, sheet "Array Heatmap", each array performed twice, total n = 4): 0.414
- Array Heatmap value (peptide array signal) (CHD5 (PPCC); CHD5 (PPCC), sheet "Array Heatmap", each array performed twice, total n = 4): 0.5134
- Array Heatmap value (peptide array signal) (PHF8; PHF8, sheet "Array Heatmap", each array performed twice, total n = 4): 0.3282
- Array Heatmap value (peptide array signal) (AIRE (PP); AIRE (PP), sheet "Array Heatmap", each array performed twice, total n = 4): 0.3828
- Array Heatmap value (peptide array signal) (ING1; ING1, sheet "Array Heatmap", each array performed twice, total n = 4): 0.5532
- Array Heatmap value (peptide array signal) (KDM4C (TTP); KDM4C (TTP), sheet "Array Heatmap", each array performed twice, total n = 4): 0.4273
- Array Heatmap value (peptide array signal) (PHF2; PHF2, sheet "Array Heatmap", each array performed twice, total n = 4): 0.5429
- Array Heatmap value (peptide array signal) (TRIM66 (PB); TRIM66 (PB), sheet "Array Heatmap", each array performed twice, total n = 4): 0.5547
- Array Heatmap value (peptide array signal) (BPTF (PB); BPTF (PB), sheet "Array Heatmap", each array performed twice, total n = 4): 0.3272
- Array Heatmap value (peptide array signal) (KDM5A (1); KDM5A (1), sheet "Array Heatmap", each array performed twice, total n = 4): 0.419

Substance: H3 (74-84): H3 74-84 (IAQDFKTDLRF; UniProt P68431 75-85, looked up, fragment)
- Array Heatmap signal, DPF2 (PPC2W2) (DPF2 (PPC2W2); [1]): 0.6874
- Array Heatmap signal, KDM5B (1) (KDM5B (1); [1]): 0.6254
- Array Heatmap signal, KDM7A (KDM7A; [1]): 0.4511
- Array Heatmap signal, MLL5 (MLL5; [1]): 0.5674
- Array Heatmap signal, TAF3 (TAF3; [1]): 0.2746
- Array Heatmap signal, CHD5 (PCC) (CHD5 (PCC); [1]): 0.8536
- Array Heatmap signal, DIDO1 (DIDO1; [1]): 0.6796
- Array Heatmap signal, ING3 (ING3; [1]): 0.4892
- Array Heatmap signal, PHF13 (PHF13; [1]): 0.6585
- Array Heatmap signal, MORC3 (CW) (MORC3 (CW); [1]): 0.3965
- Array Heatmap signal, PHRF1 (RP) (PHRF1 (RP); [1]): 0.4358
- Array Heatmap signal, RAG2 (RAG2; [1]): 0.2597
- Array Heatmap signal, PHF23 (PHF23; [1]): 0.5211
- Array Heatmap signal, ING5 (ING5; [1]): 0.3977
- Array Heatmap signal, CHD4 (PPCC) (CHD4 (PPCC); [1]): 0.6103
- Array Heatmap signal, ING2 (ING2; [1]): 0.5988
- Array Heatmap signal, PHF21A (PHF21A; [1]): 0.5055
- Array Heatmap signal, KDM5A (3) (KDM5A (3); [1]): 0.4265
- Array Heatmap signal, ING4 (ING4; [1]): 0.5059
- Array Heatmap signal, SP140L (SP140L; [1]): 0.3639
- Array Heatmap signal, KDM5B (3) (KDM5B (3); [1]): 0.5142
- Array Heatmap signal, BAZ2B (BAZ2B; [1]): 0.5314
- Array Heatmap signal, CHD5 (PPCC) (CHD5 (PPCC); [1]): 0.6043
- Array Heatmap signal, PHF8 (PHF8; [1]): 0.3649
- Array Heatmap signal, AIRE (PP) (AIRE (PP); [1]): 0.5836
- Array Heatmap signal, ING1 (ING1; [1]): 0.527
- Array Heatmap signal, KDM4C (TTP) (KDM4C (TTP); [1]): 0.5485
- Array Heatmap signal, PHF2 (PHF2; [1]): 0.4839
- Array Heatmap signal, TRIM66 (PB) (TRIM66 (PB); [1]): 0.6388
- Array Heatmap signal, BPTF (PB) (BPTF (PB); [1]): 0.3631
- Array Heatmap signal, KDM5A (1) (KDM5A (1); [1]): 0.5057
